Blank lines part the entries; values can stand above or below the compound they belong to.
Tests used:
[1] = system: C2C12 myocytes; assay: Mitochondrial content assay in C2C12 myocytes; assay type: cell-based, mouse; conditions: C2C12; preincubation AraA 0.5 mM 1 hr or STO-609 1 μg/ml 6 hr, then 10 μg/ml adiponectin 48 hr
Description: (§1) The mouse C2C12 myoblasts were grown in 90% Dulbecco's modified high glucose Eagle's medium containing 10% (v/v) fetal bovine serum. When the cells reached 80% confluent, the myoblasts were induced to differentiate into myocytes by replacing the medium with a low serum differentiation medium (98% Dulbecco's modified high glucose Eagle's medium, 2.5% (v/v) horse serum). The medium was changed daily. The C2C12 cells were transfected by using Pofectamine 2000 (Invitrogen) and following the manufacturer's instructions.
Mitochondrial content assays were carried out as described in the following document (Cell Metab. 4, 75-87 (2006)), with slight modifications. Quantification of the mitochondrial content was conducted by using mtDNA and MitoTracker Green probe (Molecular Probes) according to the method as described in the following document (Obes. Res. 13, 574-581 (2005)). MitoTracker Green probe preferentially accumulates in mitochondria regardless of the mitochondrial membrane potential and provides an accurate assessment of mitochondrial mass. Cells were washed with PBS and after addition of 100 nM MitoTracker Green FM (Molecular Probes), incubated at 37° C. for 30 min. Cells were harvested by using trypsin/EDTA and resuspended in PBS. Fluorescence intensity was detected with excitation and emission wavelengths of 490 and 516 nm, respectively, and the values thus measured were corrected for total protein (mg/ml).

[2] = system: PGC-1α (Ppargc1a); assay: PGC-1α (Ppargc1a) expression in C2C12 myocytes; assay type: cell-based, mouse; conditions: C2C12; preincubation AraA 0.5 mM 1 hr, STO-609 1 μg/ml 6 hr or EGTA 5 mM 20 min, then adiponectin 10 μg/ml 1.5 hr
Description: Real-time PCR was carried out according to the method described in the following documents (Nature Med. 13, 332-339 2007); Nature 423, 762-769 (2003); J. Biol. Chem. 281, 8748-8755 (2006)). Total RNA was prepared from cells or tissues by using Trizol (Invitrogen) according to the manufacturer's instructions. Quantification of mRNA was conducted using a real-time PCR method (Nature 423, 762-769 (2003)) with slight modifications. The procedures used for immunoblotting are described in the following documents (Nature Med. 7, 941-946 (2001); J. Biol. Chem. 281, 26602-26614 (2006); J. Biol. Chem. 281, 8748-8755 (2006)). The livers or muscles were freeze-clamped in liquid nitrogen in situ (Nature Med. 7, 941-946 (2001); J. Biol. Chem. 281, 26602-26614 (2006); J. Biol. Chem. 281, 8748-8755 (2006)).
as §1

[3] = system: C2C12 myocytes; assay: Calcium imaging in C2C12 myocytes (fura-2); assay type: cell-based, mouse
Description: C212 myocytes cultured on glass base dishes (IWAKI) were treated with 2.5 μM fura-2/AM for 30 min. Fluorescence was measured with an Aquacosmos Calcium Imaging system (Hamamatsu Photonics). Ligands were delivered through the superfusing Ringer's solution (140 mM NaCl, 5.6 mM KCl, 5 mM HEPES, 2.0 mM sodium pyruvate, 1.25 mM KH2PO4, 2.0 mM CaCl2, 2.0 mM MgCl2, 9.4 mM D-glucose (pH 7.4)). For the calcium chelating experiment, EGTA solution (140 mM NaCl, 5.6 mM KCl, 5 mM HEPES, 2.0 mM sodium pyruvate, 1.25 mM KH2PO4, 2.0 mM MgCl2, 5.0 mM EGTA-2Na, 9.4 mM D-glucose (pH 7.4) was used for the bath solution. Fura-2 fluorescence ratios were calibrated to calcium ion signals.

[4] = biological target: T1, AdipoR1 (Mus musculus, UniProt Q91VH1); assay: Electrophysiological recording in Xenopus oocytes expressing AdipoR1; assay type: cell-based; conditions: oocytes expressing AdipoR1, 5 mM EGTA
T1 construct: expressed in transfected cells; host or cells: Xenopus oocytes (stage V to VII), cRNA synthesized from linearized modified pSPUTK
T1 sequence (Q91VH1 1-375): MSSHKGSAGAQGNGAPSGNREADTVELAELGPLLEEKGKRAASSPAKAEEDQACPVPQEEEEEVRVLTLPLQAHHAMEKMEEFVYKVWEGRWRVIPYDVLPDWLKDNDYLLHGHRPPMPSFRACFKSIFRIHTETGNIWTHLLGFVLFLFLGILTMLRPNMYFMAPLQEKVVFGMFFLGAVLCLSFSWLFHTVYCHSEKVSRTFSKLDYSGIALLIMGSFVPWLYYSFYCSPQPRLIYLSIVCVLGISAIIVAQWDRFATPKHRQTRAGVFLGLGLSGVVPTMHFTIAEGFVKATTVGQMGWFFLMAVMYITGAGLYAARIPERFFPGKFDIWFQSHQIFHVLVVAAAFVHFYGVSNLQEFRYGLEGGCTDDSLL
Description: Stage V to VII oocytes were treated with 2 mg/ml of collagenase S-1 (Nitta gelatin) in calcium ion-free saline solution (82.5 mM NaCl, 2 mM KCl, 1 mM MgCl2, and 5 mM HEPES, pH 7.5) for 1 to 2 hr at room temperature. The resulting oocytes were then microinjected with 50 ng of cRNA for mAdipoR1. The cRNA was synthesized from linearized modified pSPUTK. The injected oocytes were incubated for 3 days at 18° C. in a bath solution (88 mM NaCl, 1 mM KCl, 0.3 mM Ca(NO3)2, 0.4 mM CaCl2, 0.8 mM MgSO4, 2.4 mM […], 15 mM HEPES, pH 7.6) supplemented with 10 μg/ml of penicillin and streptomycin.
Whole cell currents were recorded with a two-electrode voltage clamp technique. Intracellular glass electrodes were filled with 3M KCl. Signals were amplified with an OC-725C amplifier (Warner Instruments), low-pass filtered at 50 Hz, and digitized at 1 kHz. A control bath solution contained 115 mM NaCl, 2.5 mM KCl, 1.8 mM CaCl2, and 10 mM HEPES. It was titrated to pH 7.2 with NaOH. A calcium ion free solution containing 1.8 mM BaCl2 instead of CaCl2 was used. The inward current was monitored at a holding potential of −80 mV. Calcium ion activated Cl^− current was monitored by applying 500-mscc depolarizing pulses of +100 mV and +50 mV from the holding potential of −80 mV. Adiponectin was supplied to the superfusing bath solution via a silicon tube connected to computer-driven solenoid valves. Data acquisition and analysis were carried out using Digidata 1322A and pCLAMP software.

[5] = system: AMPK; assay: AMPK phosphorylation in C2C12 myocytes; assay type: cell-based, mouse; conditions: C2C12; for effect on adiponectin-induced increased AMPK phosphorylation: preincubation 5 mM EGTA 20 min, 50 μM BAPTA-AM 30 min or 10 μM U73122 30 min, then adiponectin 30 μg/ml 5 min
Description: as §1

[6] = system: CaMKI; assay: CaMKI phosphorylation in C2C12 myocytes; assay type: cell-based, mouse; conditions: EGTA 5 mM
Description: as §1

[7] = system: muscle-R1KO mice; assay: Increased calcium influx experiment (Bay-K 8644 hydrogel) in muscle-R1KO mice; assay type: in vivo; conditions: 0.25 μM Bay-K 8644
[8] = system: muscle-R1KO mice; assay: Treatment of muscle-R1KO mice with AICAR, resveratrol or MnTBAP; assay type: in vivo; conditions: AICAR 500 mg per kg body weight, 2 hours
Description: Mitochondrial content assays were carried out as described in the following document (Cell Metab. 4, 75-87 (2006)), with slight modifications. Quantification of the mitochondrial content was conducted by using mtDNA and MitoTracker Green probe (Molecular Probes) according to the method as described in the following document (Obes. Res. 13, 574-581 (2005)). MitoTracker Green probe preferentially accumulates in mitochondria regardless of the mitochondrial membrane potential and provides an accurate assessment of mitochondrial mass. Cells were washed with PBS and after addition of 100 nM MitoTracker Green FM (Molecular Probes), incubated at 37° C. for 30 min. […] Fluorescence intensity was detected with excitation and emission wavelengths of 490 and 516 nm, respectively, and the values thus measured were corrected for total protein (mg/ml).
Oral glucose tolerance test (OGTT) and insulin tolerance test (ITT) were conducted by the method described in the following documents (Nature Med. 8, 1288-1295 (2002); Nature Med. 7, 941-946 (2001)), with some modifications. The areas of the glucose and insulin curves were calculated, respectively, by multiplying the cumulative mean height of the glucose values (1 mg/ml=1 cm) and insulin values (1 ng/ml=1 cm) by time (60 min=1 cm) (Nature Med. 13, 332-339 (2007); Nature Med. 7, 941-946 (2001)). […]

Structure (SMILES): Nc1ncnc2c1ncn2[C@@H]1O[C@H](CO)[C@@H](O)[C@@H]1O [AraA, reference compound]
- effect on the adiponectin-induced increase in mitochondrial biogenesis [1]: almost completely abolished
- effect on PGC-1α expression induced by adiponectin [2]: only tended to decrease

Structure (SMILES): O=C(O)c1ccc2c3c1cccc3c(=O)n1c3ccccc3nc21 [STO-609, reference compound]
- effect on the adiponectin-induced increase in mitochondrial biogenesis [1]: almost completely abolished
- effect on PGC-1α expression induced by adiponectin [2]: effectively and almost completely abolished

- effect on adiponectin-induced inward current responses [4]: almost completely abolishes
- effect on calcium-ion activated Cl- current responses to adiponectin [4]: almost completely abolished
Structure (SMILES): O=C(O)CN(CCOCCOCCN(CC(=O)O)CC(=O)O)CC(=O)O [EGTA, reference compound]
- effect on adiponectin-induced calcium ion response ([3]; 5 mM EGTA): almost completely abolished
- effect on ATP-induced intracellular calcium ion release ([3]; EGTA): had no effect
- effect on phosphorylation of AMPK induced by AICAR ([5]; 5 mM EGTA, AICAR 1 mM 1 hr): had no effect
- effect on ionomycin-dependent phosphorylation of AMPK ([5]; 5 mM EGTA, ionomycin 1 μM 5 min): almost completely abolished
- effect on adiponectin-induced increased AMPK phosphorylation [5]: partially suppressed
- effect on PGC-1α expression induced by adiponectin [2]: effectively and almost completely abolished
- effect on increased CaMKI phosphorylation stimulated with adiponectin [6]: almost completely abolished

Structure (SMILES): COc1ccc2c(c1)CC[C@@H]1[C@@H]2CC[C@]2(C)[C@@H](NCCCCCCN3C(=O)C=CC3=O)CC[C@@H]12 [U73122]
- effect on adiponectin-induced increased AMPK phosphorylation [5]: had little effect

Structure (SMILES): COC(=O)C1=C(C)NC(C)=C([N+](=O)[O-])C1c1ccccc1C(F)(F)F (centres unmarked) [Bay-K 8644]
- CaMKKβ activity (phosphorylation of CaMKI) in skeletal muscle [7]: increase in CaMKKβ activity

Structure (SMILES): CC(=O)OCOC(=O)CN(CC(=O)OCOC(C)=O)c1ccccc1OCCOc1ccccc1N(CC(=O)OCOC(C)=O)CC(=O)OCOC(C)=O [BAPTA-AM, Bis-(o-aminophenoxy)ethane-N,N,N9,N9-tetra-acetic acid, tetraacetoxymethyl ester]
- effect on adiponectin-induced increased AMPK phosphorylation [5]: partially suppressed

Structure (SMILES): NC(=O)c1ncn([C@@H]2O[C@H](CO)[C@@H](O)[C@H]2O)c1N [AICAR, 5-aminoimidazole-4-carboxamide-1-β-D-libocide]
- phosphorylation of AMPK in muscle [8]: significantly increased

Reference: patent US20130274185A1, “Pharmaceutical for Pseudo-Exercise Therapy” (THE UNIVERSITY OF TOKYO, priority 2010, published 2013)
